Source: patent publication US20260053834A1, “COVALENT MODIFIERS OF AKT1 AND USES THEREOF” (Terremoto Biosciences, Inc., priority 2023, published 2026)

Assays:
[1] = biological target: T1, AKT1 E17K (Homo sapiens, UniProt P31749, E17K); assay: Live cell target engagement by NanoBRET competitive probe displacement, AKT1 E17K; format: binding; settings: transfected HEK293 cells, 2 h at 37° C., read-out: AKT1 E17K IC50: GeoMean IC50
T1 construct: expressed in transfected cells; host or cells: HEK293
T1 sequence (P31749 whole entry E17K): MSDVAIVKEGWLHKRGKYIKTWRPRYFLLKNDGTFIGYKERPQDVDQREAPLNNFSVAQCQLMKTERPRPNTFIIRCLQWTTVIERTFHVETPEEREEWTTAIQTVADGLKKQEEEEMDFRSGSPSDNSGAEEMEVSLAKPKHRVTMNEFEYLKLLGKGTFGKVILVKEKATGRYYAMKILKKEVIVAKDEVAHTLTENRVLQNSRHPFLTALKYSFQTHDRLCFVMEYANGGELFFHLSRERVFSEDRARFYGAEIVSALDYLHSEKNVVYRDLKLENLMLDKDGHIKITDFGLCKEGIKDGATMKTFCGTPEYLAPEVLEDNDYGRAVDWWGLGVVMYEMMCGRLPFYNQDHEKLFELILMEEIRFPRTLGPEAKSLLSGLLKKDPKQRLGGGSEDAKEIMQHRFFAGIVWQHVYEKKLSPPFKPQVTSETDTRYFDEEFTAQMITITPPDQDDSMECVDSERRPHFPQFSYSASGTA
Procedure: (§1) Determining live cell AKT1 E17K, AKT1 WT, and AKT2 target engagement by NanoBRET competitive probe displacement. Live cell target engagement assays were performed as described (Vasta, J. D. et al. Cell Chem Biol 2018, 25(11), 206-214). Briefly, HEK293 cells were transfected with plasmids encoding kinase-NanoLuciferase fusion proteins overnight. Cells were then treated with serial dilutions of compound and an ˜EC50 concentration of fluorescently-tagged ATP-competitive tracer (Promega). After incubation for 2 h at 37° C., luciferase substrate and extracellular luciferase inhibitor were added to all wells, and luminescent intensity at 460 nm and 600 nm were measured on a multimode plate-reader. The ratio of E600/E460 was calculated to give the tracer engagement signal (BRET). IC50 values were calculated by fitting BRET values to a log(inhibitor) vs. response Hill equation.

[2] = biological target: T2, AKT2 (Homo sapiens, UniProt P31751); assay: Live cell target engagement by NanoBRET competitive probe displacement, AKT2; format: binding; settings: transfected HEK293 cells, 2 h at 37° C., read-out: AKT2 IC50: GeoMean IC50
T2 construct: expressed in transfected cells; host or cells: HEK293
T2 sequence (P31751 whole entry): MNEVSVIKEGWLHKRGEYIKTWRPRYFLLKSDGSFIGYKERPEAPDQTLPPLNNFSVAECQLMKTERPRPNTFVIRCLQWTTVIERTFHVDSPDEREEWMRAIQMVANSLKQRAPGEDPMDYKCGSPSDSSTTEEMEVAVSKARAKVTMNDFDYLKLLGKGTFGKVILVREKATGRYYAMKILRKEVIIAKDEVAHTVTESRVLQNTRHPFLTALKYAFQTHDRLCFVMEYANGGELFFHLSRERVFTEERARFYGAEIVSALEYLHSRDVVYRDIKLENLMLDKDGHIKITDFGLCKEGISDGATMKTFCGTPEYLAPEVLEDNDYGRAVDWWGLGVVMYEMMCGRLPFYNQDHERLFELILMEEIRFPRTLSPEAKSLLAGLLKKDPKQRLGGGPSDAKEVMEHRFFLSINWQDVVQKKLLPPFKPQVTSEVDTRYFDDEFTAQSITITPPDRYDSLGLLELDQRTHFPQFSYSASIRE
Procedure: as §1

[3] = biological target: T3, AKT1 WT (Homo sapiens, UniProt P31749); assay: Live cell target engagement by NanoBRET competitive probe displacement, AKT1 WT; format: binding; settings: transfected HEK293 cells, 2 h at 37° C., read-out: AKT1 WT IC50: GeoMean IC50
T3 construct: expressed in transfected cells; host or cells: HEK293
T3 sequence (P31749 whole entry): as the sequence (P31749 whole entry E17K) above, with K17E counted along it
Procedure: as §1

[4] = system: LAPC4 prostate cancer cells, which express the AKT1 E17K allele; assay: Antiproliferative effects in LAPC4 cells (CellTiter Glo, 72 h); format: cell-based; settings: Homo sapiens, LAPC4, 72 h, read-out: LAPC4 proliferation IC50: GeoMean IC50
Procedure: Antiproliferative effects in LAPC4 cells. LAPC4 prostate cancer cells (Klein, K. A. et al. Nat Med 1997, 3, 402-408), which express the AKT1 E17K allele, were grown in IMDM media (Hyclone) supplemented with 12% FBS+1% P/S. To assess compound effects on growth, 1,000 cells/well were seeded in 384 well assay plates, incubated with compound dilutions dissolved in DMSO. After 72 h, intracellular ATP content was assessed with CellTiter Glo reagent (Promega) according to the manufacturer's instructions. IC50 values were calculated by fitting luminescence values to a log(inhibitor) vs. response Hill equation.

| Structure (SMILES) | IC50 [1] [nM] | IC50 [2] [nM] | IC50 [3] [nM] | IC50 [4] [nM] |
| --- | --- | --- | --- | --- |
| Nc1ccn(-c2ccc3nc(-c4cccnc4N)n(-c4ccc5c(c4)CC[C@@H]5NC(=O)c4ccc(O)c(C=O)c4)c3n2)n1 [Example 134, N-[(1S)-5-[5-(3-aminopyrazol-1-yl)-2-(2-aminopyridin-3-yl)imidazo[4,5-b]pyridin-3-yl]-2,3-dihydro-1H-inden-1-yl]-3-formyl-4-hydroxybenzamide] | 10 to 100 | 100 to 2000 | 100 to 2000 | 100 to 2000 |
| Nc1ncccc1-c1nc2ccc(-c3nccs3)nc2n1-c1ccc2c(c1)CC[C@@H]2NC(=O)c1ccc(O)c(C=O)c1 [Example 57, N-[(1S)-5-[2-(2-aminopyridin-3-yl)-5-(1,3-thiazol-2-yl)imidazo[4,5-b]pyridin-3-yl]-2,3-dihydro-1H-inden-1-yl]-3-formyl-4-hydroxybenzamide] | 10 to 100 | 100 to 2000 | 10 to 100 | 10 to 100 |
| Nc1ncccc1-c1nc2ccc(-c3ccccc3)nc2n1-c1ccc2c(c1)CC[C@@H]2NC(=O)c1cc(C=O)c2[nH]cnc2c1 [Example 162, N-[(1S)-5-[2-(2-aminopyridin-3-yl)-5-phenylimidazo[4,5-b]pyridin-3-yl]-2,3-dihydro-1H-inden-1-yl]-7-formyl-1H-1,3-benzodiazole-5-carboxamide] | < 10 | < 10 | < 10 | 10 to 100 |
| Nc1ncccc1-c1nc2ccc(-n3ccc(CO)n3)nc2n1-c1ccc2c(c1)CC[C@@H]2NC(=O)c1ccc(O)c(C=O)c1 [Example 127, (S)—N-(5-(2-(2-aminopyridin-3-yl)-5-(3-(hydroxymethyl)-1H-pyrazol-1-yl)-3H-imidazo[4,5-b]pyridin-3-yl)-2,3-dihydro-1H-inden-1-yl)-3-formyl-4-hydroxybenzamide] | 10 to 100 | 100 to 2000 | 10 to 100 | 10 to 100 |
| Nc1ncccc1-c1nc2ccc(-n3cncn3)nc2n1-c1ccc2c(c1)CC[C@@H]2NC(=O)c1ccc(O)c(C=O)c1 [Example 97, N-[(1S)-5-[2-(2-aminopyridin-3-yl)-5-(1,2,4-triazol-1-yl)imidazo[4,5-b]pyridin-3-yl]-2,3-dihydro-1H-inden-1-yl]-3-formyl-4-hydroxybenzamide] | 10 to 100 | 100 to 2000 | 100 to 2000 | 100 to 2000 |
| C#Cc1ccc2nc(-c3cccnc3N)n(-c3ccc4c(c3)CC[C@@H]4NC(=O)c3ccc(O)c(C=O)c3)c2n1 [Example 50, N-[(1S)-5-[2-(2-aminopyridin-3-yl)-5-ethynylimidazo[4,5-b]pyridin-3-yl]-2,3-dihydro-1H-inden-1-yl]-3-formyl-4-hydroxybenzamide] | 10 to 100 | ≥ 2000 | 100 to 2000 | 100 to 2000 |
| Nc1ncccc1-c1nc2ccc(-n3cccn3)nc2n1-c1ccc2c(c1)CC[C@@H]2NC(=O)c1cc(C=O)c(O)c(F)c1Cl [Example 110, N-[(1S)-5-[2-(2-aminopyridin-3-yl)-5-(pyrazol-1-yl)imidazo[4,5-b]pyridin-3-yl]-2,3-dihydro-1H-inden-1-yl]-2-chloro-3-fluoro-5-formyl-4-hydroxybenzamide] | 10 to 100 | 100 to 2000 | 10 to 100 | 100 to 2000 |
| Nc1ncccc1-c1nc2ccc(-n3ccc(F)n3)nc2n1-c1ccc2c(c1)CC[C@@H]2NC(=O)c1cc(C=O)c(O)c(F)c1F [Example 125, (S)—N-(5-(2-(2-aminopyridin-3-yl)-5-(3-fluoro-1H-pyrazol-1-yl)-3H-imidazo[4,5-b]pyridin-3-yl)-2,3-dihydro-1H-inden-1-yl)-2,3-difluoro-5-formyl-4-hydroxybenzamide] | < 10 | 100 to 2000 | 10 to 100 | 10 to 100 |
| Nc1ncccc1-c1nc2ccc(-c3ccccc3F)nc2n1-c1ccc2c(c1)CC[C@@H]2NC(=O)c1ccc(O)c(C=O)c1 [Example 21, N-[(1S)-5-[2-(2-aminopyridin-3-yl)-5-(2-fluorophenyl)imidazo[4,5-b]pyridin-3-yl]-2,3-dihydro-1H-inden-1-yl]-3-formyl-4-hydroxybenzamide] | 10 to 100 | 10 to 100 | 10 to 100 | 10 to 100 |
| Nc1ncccc1-c1nc2c(Cl)cc(-n3cccn3)nc2n1-c1ccc2c(c1)CC[C@@H]2NC(=O)c1cc(C=O)c(O)c(F)c1F [Example 212, N-[(1S)-5-[2-(2-aminopyridin-3-yl)-7-chloro-5-(pyrazol-1-yl)imidazo[4,5-b]pyridin-3-yl]-2,3-dihydro-1H-inden-1-yl]-2,3-difluoro-5-formyl-4-hydroxybenzamide] | < 10 | 10 to 100 | < 10 | 10 to 100 |
| Nc1ncccc1-c1nc2ccc(-c3ccccc3)nc2n1-c1ccc2c(c1)CC[C@@H]2NC(=O)c1ccc(NC(=O)C(F)F)c(C=O)c1 [Example 52, N-[(1S)-5-[2-(2-aminopyridin-3-yl)-5-phenylimidazo[4,5-b]pyridin-3-yl]-2,3-dihydro-1H-inden-1-yl]-4-(2,2-difluoroacetamido)-3-formylbenzamide] | < 10 | 10 to 100 | < 10 | 10 to 100 |
| Nc1ncccc1-c1nc2c(-n3cccn3)cc(-n3cccn3)nc2n1-c1ccc2c(c1)CC[C@@H]2NC(=O)c1ccc(O)c(C=O)c1 [Example 198, N-[(1S)-5-[2-(2-aminopyridin-3-yl)-5,7-bis(pyrazol-1-yl)imidazo[4,5-b]pyridin-3-yl]-2,3-dihydro-1H-inden-1-yl]-3-formyl-4-hydroxybenzamide] | 10 to 100 | 100 to 2000 | 10 to 100 | 100 to 2000 |
| COc1cc(-n2cccn2)nc2c1nc(-c1cccnc1N)n2-c1ccc2c(c1)CC[C@@H]2NC(=O)c1ccc(O)c(C=O)c1 [Example 200, N-[(1S)-5-[2-(2-aminopyridin-3-yl)-7-methoxy-5-(pyrazol-1-yl)imidazo[4,5-b]pyridin-3-yl]-2,3-dihydro-1H-inden-1-yl]-3-formyl-4-hydroxybenzamide] | 10 to 100 | 100 to 2000 | 10 to 100 | 100 to 2000 |
| Nc1ncccc1-c1nc2ccc(N3CCOCC3)nc2n1-c1ccc2c(c1)CC[C@@H]2NC(=O)c1ccc(O)c(C=O)c1 [Example 42, N-[(1S)-5-[2-(2-aminopyridin-3-yl)-5-(morpholin-4-yl)imidazo[4,5-b]pyridin-3-yl]-2,3-dihydro-1H-inden-1-yl]-3-formyl-4-hydroxybenzamide] | 10 to 100 | 100 to 2000 | 100 to 2000 | 100 to 2000 |
| Nc1ncccc1-c1nc2ccc(-c3ncc(C(F)F)s3)nc2n1-c1ccc2c(c1)CC[C@@H]2NC(=O)c1ccc(O)c(C=O)c1 [Example 146, (S)—N-(5-(2-(2-aminopyridin-3-yl)-5-(5-(difluoromethyl)thiazol-2-yl)-3H-imidazo[4,5-b]pyridin-3-yl)-2,3-dihydro-1H-inden-1-yl)-3-formyl-4-hydroxybenzamide] | 10 to 100 | 100 to 2000 | 100 to 2000 | 100 to 2000 |
| COCc1cnn(-c2ccc3nc(-c4cccnc4N)n(-c4ccc5c(c4)CC[C@@H]5NC(=O)c4cc(C=O)c(O)cc4F)c3n2)c1 [Example 152, (S)—N-(5-(2-(2-aminopyridin-3-yl)-5-(4-(methoxymethyl)-1H-pyrazol-1-yl)-3H-imidazo[4,5-b]pyridin-3-yl)-2,3-dihydro-1H-inden-1-yl)-2-fluoro-5-formyl-4-hydroxybenzamide] | 10 to 100 | 100 to 2000 | 100 to 2000 | 100 to 2000 |
| Nc1ncccc1-c1nc2ccc(-c3ccccc3)nc2n1-c1ccc2c(c1)CC[C@@H]2NC(=O)c1cc(Cl)c(O)c(C=O)c1 [Example 11, N-[(1S)-5-[2-(2-aminopyridin-3-yl)-5-phenylimidazo[4,5-b]pyridin-3-yl]-2,3-dihydro-1H-inden-1-yl]-3-chloro-5-formyl-4-hydroxybenzamide] | 10 to 100 | 100 to 2000 | 10 to 100 | 100 to 2000 |
| Nc1ncccc1-c1nc2ccc(-n3cccn3)nc2n1-c1ccc2c(c1)CC[C@@H]2Nc1n[nH]c2c(C=O)cccc12 [Example 148, 3-{[(1S)-5-[2-(2-aminopyridin-3-yl)-5-(pyrazol-1-yl)imidazo[4,5-b]pyridin-3-yl]-2,3-dihydro-1H-inden-1-yl]amino}-1H-indazole-7-carbaldehyde] | 10 to 100 | 100 to 2000 | 100 to 2000 | 100 to 2000 |
